From patent publication US11760741B2, “Pro-drugs of eliglustat” (KASHIV BIOSCIENCES, LLC, priority 2018, dated 2023)
Structures can show the parent of a compound that is named as a salt.

Assay: not given
Conditions: human, microsomes

In the case of CCCCCCCC(=O)N[C@H](CN1CCCC1)[C@H](OC(C)=O)c1ccc2c(c1)OCCO2 [I-e Hemitartrate salt, (1R,2R)-1-(2,3-dihydrobenzo[b][1,4]dioxin-6-yl)-2-octanamido-3-(pyrrolidin-1-yl)propyl acetate], the “HLM stability (half-life, minutes)” value was <30 min.
In the case of CCCCCCCC(=O)N[C@H](CN1CCCC1)[C@H](OC(=O)c1ccccc1)c1ccc2c(c1)OCCO2 [I-a Hemitartrate salt, (1R,2R)-1-(2,3-dihydrobenzo[b][1,4]dioxin-6-yl)-2-octanamido-3-(pyrrolidin-1-yl)propyl benzoate], the “HLM stability (half-life, minutes)” value was <30 min.
In the case of CCCCCCCC(=O)N[C@H](CN1CCCC1)[C@H](OC(=O)CC)c1ccc2c(c1)OCCO2 [I-f Hemitartrate salt, (1R,2R)-1-(2,3-dihydrobenzo[b][1,4]dioxin-6-yl)-2-octanamido-3-(pyrrolidin-1-yl)propyl propionate], the “HLM stability (half-life, minutes)” value was <30 min.

Assay: Metabolic stability of prodrugs in human liver microsomes
Conditions: pH 7.4

Compared with CCCCCCCC(=O)N[C@H](CN1CCCC1)[C@H](OC(=O)COCCOCCOC)c1ccc2c(c1)OCCO2 [II-a, (1R,2R)-1-(2,3-dihydrobenzo[b][1,4]dioxin-6-yl)-2-octanamido-3-(pyrrolidin-1-yl)propyl 2-(2-(2-methoxyethoxy)ethoxy)acetate], CCCCCCCC(=O)N[C@H](CN1CCCC1)[C@H](OC(=O)CCOCCOCCN)c1ccc2c(c1)OCCO2 [II-b, (1R,2R)-1-(2,3-dihydrobenzo[b][1,4]dioxin-6-yl)-2-octanamido-3-(pyrrolidin-1-yl)propyl 3-(2-(2-aminoethoxy)ethoxy)propanoate] is higher in half-life: < 30 min for the first, > 90 min for the second.

Going from CCCCCCCC(=O)N[C@H](CN1CCCC1)[C@H](OC(=O)CCC(=O)O)c1ccc2c(c1)OCCO2 [I-o, 4-((1R,2R)-1-(2,3-dihydrobenzo[b][1,4]dioxin-6-yl)-2-octanamido-3-(pyrrolidin-1-yl)propoxy)-4-oxobutanoic acid] to CCCCCCCC(=O)N[C@H](CN1CCCC1)[C@H](OC(=O)CCCC(=O)O)c1ccc2c(c1)OCCO2 [I-t, 5-((1R,2R)-1-(2,3-dihydrobenzo[b][1,4]dioxin-6-yl)-2-octanamido-3-(pyrrolidin-1-yl)propoxy)-5-oxopentanoic acid], the half-life falls from > 90 min to 65 min.

CCCCCCCCCCCC(=O)O[C@H](c1ccc2c(c1)OCCO2)[C@@H](CN1CCCC1)NC(=O)CCCCCCC [I-k Hemitartrate salt, (1R,2R)-1-(2,3-dihydrobenzo[b][1,4]dioxin-6-yl)-2-octanamido-3-(pyrrolidin-1-yl)propyl dodecanoate] and CCCCCCCCCC(=O)O[C@H](c1ccc2c(c1)OCCO2)[C@@H](CN1CCCC1)NC(=O)CCCCCCC [I-j Hemitartrate salt, (1R,2R)-1-(2,3-dihydrobenzo[b][1,4]dioxin-6-yl)-2-octanamido-3-(pyrrolidin-1-yl)propyl decanoate] are within 1.5-fold of each other in half-life: 70 min for the first, 63 min for the second.

CCCCCCCC(=O)N[C@H](CN1CCCC1)[C@H](OC(=O)[C@@H](N)C(C)C)c1ccc2c(c1)OCCO2 [I-m Hemitartrate salt] and CCCCCCCC(=O)N[C@H](CN1CCCC1)[C@H](OC(=O)[C@H](N)C(C)C)c1ccc2c(c1)OCCO2 [I-l Hydrochloride salt] cannot be ordered by half-life: < 30 min for the first, < 30 min for the second.

CCCCCCCC(=O)N[C@H](CN1CCCC1)[C@H](OC(=O)CCCCCCC)c1ccc2c(c1)OCCO2 [I-i Hemitartrate salt, (1R,2R)-1-(2,3-dihydrobenzo[b][1,4]dioxin-6-yl)-2-octanamido-3-(pyrrolidin-1-yl)propyl octanoate] and CCCCCCCC(=O)N[C@H](CN1CCCC1)[C@H](OC(=O)CCCCC)c1ccc2c(c1)OCCO2 [I-aa, (1R,2R)-1-(2,3-dihydrobenzo[b][1,4]dioxin-6-yl)-2-octanamido-3-(pyrrolidin-1-yl)propyl hexanoate] cannot be ordered by half-life: < 30 min for the first, < 30 min for the second.

CCCCCCCC(=O)N[C@H](CN1CCCC1)[C@H](OC(=O)C(C)C)c1ccc2c(c1)OCCO2 [I-g Hemitartrate salt, (1R,2R)-1-(2,3-dihydrobenzo[b][1,4]dioxin-6-yl)-2-octanamido-3-(pyrrolidin-1-yl)propyl isobutyrate] and CCCCCCCC(=O)N[C@H](CN1CCCC1)[C@H](OC(=O)N(C)C)c1ccc2c(c1)OCCO2 [I-r, (1R,2R)-1-(2,3-dihydrobenzo[b][1,4]dioxin-6-yl)-2-octanamido-3-(pyrrolidin-1-yl)propyl dimethylcarbamate] cannot be ordered by half-life: < 30 min for the first, < 30 min for the second.

CCCCCCCC(=O)N[C@H](CN1CCCC1)[C@H](OC(=O)CCN1CCOCC1)c1ccc2c(c1)OCCO2 [I-x, (1R,2R)-1-(2,3-dihydrobenzo[b][1,4]dioxin-6-yl)-2-octanamido-3-(pyrrolidin-1-yl)propyl 3-morpholinopropanoate] and CCCCCCCC(=O)N[C@H](CN1CCCC1)[C@H](OC(=O)CN(C)C)c1ccc2c(c1)OCCO2 [I-w, (1R,2R)-1-(2,3-dihydrobenzo[b][1,4]dioxin-6-yl)-2-octanamido-3-(pyrrolidin-1-yl)propyl dimethylglycinate] cannot be ordered by half-life: < 30 min for the first, < 30 min for the second.

CCCCCCCC(=O)N[C@H](CN1CCCC1)[C@H](OC(=O)c1cccnc1)c1ccc2c(c1)OCCO2 [I-c Hemitartrate salt, (1R,2R)-1-(2,3-dihydrobenzo[b][1,4]dioxin-6-yl)-2-octanamido-3-(pyrrolidin-1-yl)propyl nicotinate] and CCCCCCCC(=O)N[C@H](CN1CCCC1)[C@H](OC(=O)c1ccccc1O)c1ccc2c(c1)OCCO2 [I-d Hemitartrate salt, (1R,2R)-1-(2,3-dihydrobenzo[b][1,4]dioxin-6-yl)-2-octanamido-3-(pyrrolidin-1-yl)propyl 2-hydroxybenzoate] cannot be ordered by half-life: < 30 min for the first, < 30 min for the second.

First: CCCCCCCC(=O)N[C@H](CN1CCCC1)[C@H](O)c1ccc2c(c1)OCCO2 [Eliglustat, N-((1R, 2R)-1-(2,3-dihydrobenzo[b] [1,4]dioxin-6-yl)-1-hydroxy-3-(pyrrolidin-1-yl)propan-2-yl) octanamide]
Second: CCCCCCCC(=O)N[C@H](CN1CCCC1)[C@H](OS(=O)(=O)O)c1ccc2c(c1)OCCO2 [IV-d, (1R,2R)-1-(2,3-dihydrobenzo[b][1,4]dioxin-6-yl)-2-octanamido-3-(pyrrolidin-1-yl)propyl hydrogen sulfate]
The half-life of the first is lower: 30 min for the first, > 90 min for the second.

CCCCCCCC(=O)N[C@H](CN1CCCC1)[C@H](OC(=O)N1CCC(N2CCCCC2)CC1)c1ccc2c(c1)OCCO2 [I-q, (1R,2R)-1-(2,3-dihydrobenzo[b][1,4]dioxin-6-yl)-2-octanamido-3-(pyrrolidin-1-yl)propyl [1,4′-bipiperidine]-1′-carboxylate] and CCCCCCCC(=O)N[C@H](CN1CCCC1)[C@H](OC(=O)NC)c1ccc2c(c1)OCCO2 [I-u Hemitartrate salt, (1R,2R)-1-(2,3-dihydrobenzo[b][1,4]dioxin-6-yl)-2-octanamido-3-(pyrrolidin-1-yl)propyl methylcarbamate] cannot be ordered by half-life: < 30 min for the first, < 30 min for the second.

First: CCCCCCCC(=O)N[C@H](CN1CCCC1)[C@H](OC(=O)/C=C/C(=O)O)c1ccc2c(c1)OCCO2 [I-s, (E)-4-((1R,2R)-1-(2,3-dihydrobenzo[b][1,4]dioxin-6-yl)-2-octanamido-3-(pyrrolidin-1-yl)propoxy)-4-oxobut-2-enoic acid]
Second: CCCCCCCC(=O)N[C@H](CN1CCCC1)[C@H](OC(=O)CC(=O)O)c1ccc2c(c1)OCCO2 [I-z, 3-((1R,2R)-1-(2,3-dihydrobenzo[b][1,4]dioxin-6-yl)-2-octanamido-3-(pyrrolidin-1-yl)propoxy)-3-oxopropanoic acid]
The half-life of the first is lower: 64 min for the first, > 90 min for the second.

CCCCCCCC(=O)N[C@H](CN1CCCC1)[C@H](OS(N)(=O)=O)c1ccc2c(c1)OCCO2 [IV-c, (1R,2R)-1-(2,3-dihydrobenzo[b][1,4]dioxin-6-yl)-2-octanamido-3-(pyrrolidin-1-yl)propyl sulfamate] and CCCCCCCC(=O)N[C@H](CN1CCCC1)[C@H](OC(=O)OCC)c1ccc2c(c1)OCCO2 [I-p Hemitartrate salt, (1R,2R)-1-(2,3-dihydrobenzo[b][1,4]dioxin-6-yl)-2-octanamido-3-(pyrrolidin-1-yl)propyl ethyl carbonate] cannot be ordered by half-life: < 30 min for the first, < 30 min for the second.

CCCCCCCC(=O)N[C@H](CN1CCCC1)[C@H](OC(=O)C(C)(C)C)c1ccc2c(c1)OCCO2 [I-h Hemitartrate salt, (1R,2R)-1-(2,3-dihydrobenzo[b][1,4]dioxin-6-yl)-2-octanamido-3-(pyrrolidin-1-yl)propyl pivalate] and CCCCCCCC(=O)N[C@H](CN1CCCC1)[C@H](OC(=O)N(CC)CC)c1ccc2c(c1)OCCO2 [I-n Hemitartrate salt, (1R,2R)-1-(2,3-dihydrobenzo[b][1,4]dioxin-6-yl)-2-octanamido-3-(pyrrolidin-1-yl)propyl diethylcarbamate] cannot be ordered by half-life: < 30 min for the first, < 30 min for the second.

Assay: in vitro
Conditions: human, microsomes, pH 7.4

CCCCCCCC(=O)N[C@H](CN1CCCC1)[C@H](OC(=O)c1ccccc1N)c1ccc2c(c1)OCCO2 [I-v, (1R,2R)-1-(2,3-dihydrobenzo[b][1,4]dioxin-6-yl)-2-octanamido-3-(pyrrolidin-1-yl)propyl 2-aminobenzoate] and CCCCCCCC(=O)N[C@H](CN1CCCC1)[C@H](OC(=O)Cc1ccccc1)c1ccc2c(c1)OCCO2 [I-b Hemitartrate salt, (1R,2R)-1-(2,3-dihydrobenzo[b][1,4]dioxin-6-yl)-2-octanamido-3-(pyrrolidin-1-yl)propyl 2-phenylacetate] cannot be ordered by half-life: < 30 min for the first, < 30 min for the second.
